# Results reported in PubChem BioAssay AID652058 (Broad Institute, 2013).
# Inconclusive results are not listed.
# Test system: HeLa Env/CEM cell fusion, luciferase, 16-24 h
# Assay: blockers of HIV-1 ZM109 envelope-driven cell-cell fusion – HeLa effector, CEM target cells, luciferase, cherry-pick, dose response (AID 652058)
compound,measurement,value
O=C(C[C@H]1C[C@H]2c3cc(NC(=O)c4ccc5c(c4)OCO5)ccc3O[C@H]2[C@H](CO)O1)NCc1ccc(Oc2ccccc2)cc1,AC50,13.7 µM
